Measurements taken from patent US20240415124A1, “HERBICIDAL COMPOSITION CONTAINING 3-(2-CHLORO-4-FLUORO-5-(3-METHYL-2,6-DIOXO-4-TRIFLUOROMETHYL-3,6-DIHYDROPYRIMIDIN-1(2H)-YL)PHENYL)-5-METHYL-4,5-DIHYDROISOXAZOLE-5-CARBOXYLIC ACID ETHYL ESTER AND GLUFOSINATE-P AND USE THEREOF” (NANTONG JIANGSHAN AGROCHEMICAL & CHEMICALS CO., LTD., priority 2022, published 2024).

Tested on: Erigeron canadensis
Assay: Laboratory activity determination test (greenhouse pot test, stem and leaf spray, fresh weight inhibition, Gowing method)
Format: in vivo
Details: single pesticide
Protocol: (1) Test objective: Inhibitory effects of 3-(2-chloro-4-fluoro-5-(3-methyl-2,6-dioxo-4-trifluoromethyl-3,6-dihydropyrimidin-1(2H)-yl)phenyl)-5-methyl-4,5-dihydroisoxazole-5-carboxylic acid ethyl ester, glufosinate-P and different mixed compositions of the two pesticides on Erigeron canadensis under potting conditions in a greenhouse are determined, and a combined action of the two pesticides is evaluated. […] After a pesticide liquid was air-dried, a test material was placed in a greenhouse for cultivation. […] A method for evaluating the combined action of the two pesticides after compounding was used with reference to a Gowing method in Pesticides Guidelines for Laboratory Bioactivity Tests: Determining Combined Action of Mixtures.
Fresh weight inhibition rate %=(fresh weight of a control group—fresh weight of a treatment group)/fresh weight of a control group*100.
When E-E0 is greater than −10 and less than 10, an additive effect is achieved. When E-E0 is equal to or less than −10, an antagonistic effect is achieved.

| SMILES | Measured control efficacy E (%) (dosage 1 g a.i./mu) | Measured control efficacy E (%) (dosage 2 g a.i./mu) | Measured control efficacy E (%) (dosage 3 g a.i./mu) | Measured control efficacy E (%) (dosage 4 g a.i./mu) | Measured control efficacy E (%) (dosage 5 g a.i./mu) | Measured control efficacy E (%) (dosage 8 g a.i./mu) | Measured control efficacy E (%) (dosage 12 g a.i./mu) | Measured control efficacy E (%) (dosage 16 g a.i./mu) | Measured control efficacy E (%) (dosage 20 g a.i./mu) | Measured control efficacy E (%) (dosage 24 g a.i./mu) |
| --- | --- | --- | --- | --- | --- | --- | --- | --- | --- | --- |
| CCOC(=O)C1(C)CC(c2cc(-n3c(=O)cc(C(F)(F)F)n(C)c3=O)c(F)cc2Cl)=NO1 (stereo not shown) [3-(2-chloro-4-fluoro-5-(3-methyl-2,6-dioxo-4-trifluoromethyl-3,6-dihydropyrimidin-1(2H)-yl)phenyl)-5-methyl-4,5-dihydroisoxazole-5-carboxylic acid ethyl ester] | 33.82% | 44.46% | 72.89% | 80.22% | 89.09% |  |  |  |  |  |
| CP(=O)(O)CC[C@H](N)C(=O)O [Glufosinate-P] |  |  |  |  |  | 21.63% | 51.94% | 67.92% | 74.07% | 78.07% |
